Data taken from patent US9359281B2, “Enantiomers of 2-hydroxy derivatives of fatty acids” (UNIVERSITAT DE LES ILLES BALEARS, priority 2011, dated 2016).

What was measured:
T98G cells [1] = test: Levels of SM in cell membranes, T98G; assay type: cell-based, human; settings: 200 μM [−]2OHOA
Description: (§1) The levels of SM, cultivated in the absence (control) or presence of 200 μM of [−]2OHOA, in normal cell membranes (MRC-5 and IMR90) were measured, and also in several types of tumoral cells (see Table 2). In all cases, we detected that the membranes of tumoral cells have SM levels of about half or a third of that in normal cells (FIG. 1). We can therefore assert that SM concentration is a biomarker which indicates tumorgenesis in human cells. On the other hand, treatments with the molecules of the present invention induce an increase of SM in the tumour cells which is not naturally occurring. […] For example, the spectrophotometry determination of solution fluorescence of the SM levels is a very simple, quick and efficient analysis method (FIG. 1D). Thus, this invention has generated a method for diagnosis for detecting the described pathological processes and pathologies in which there are SM level changes, and also for monitoring the efficiency of the therapy using molecules of the present invention and others of similar activity. Based on this knowledge, this invention also includes kits for diagnosing these diseases.

A172 cells [2] = test: Levels of SM in cell membranes, A172; assay type: cell-based, human; settings: A172, 200 μM [−]2OHOA
Description: as §1

U87 cells = test: Levels of SM in cell membranes, U87; assay type: cell-based, human; settings: U87, 200 μM [−]2OHOA
Description: as §1

C-6 cells [3] = test: Levels of SM in cell membranes, C-6; assay type: cell-based; settings: C-6 rat glioma, 200 μM [−]2OHOA
Description: as §1

SH-SYSY cells = test: Levels of SM in cell membranes, SH-SYSY; assay type: cell-based, human; settings: 200 μM [−]2OHOA
Description: as §1

U937 cells = test: Levels of SM in cell membranes, U937; assay type: cell-based, human; settings: U937, 200 μM [−]2OHOA
Description: as §1

HepG2 cells = test: Levels of SM in cell membranes, HepG2; assay type: cell-based, human; settings: HepG2, 200 μM [−]2OHOA
Description: as §1

PC3 cells = test: Levels of SM in cell membranes, PC3; assay type: cell-based, human; settings: PC3, 200 μM [−]2OHOA
Description: as §1

HT29 cells = test: Levels of SM in cell membranes, HT29; assay type: cell-based, human; settings: HT29, 200 μM [−]2OHOA
Description: as §1

IMR90 cells = test: Levels of SM in cell membranes, IMR90; assay type: cell-based, human; settings: IMR90 non-tumoral fibroblast, 200 μM [−]2OHOA
Description: as §1

T98G cells [4] = test: Cell growth inhibition, T98G; assay type: cell-based, human; design: key: +: inhibition of cell growth; −: absence of effect
A172 cells [5] = test: Cell growth inhibition, A172; assay type: cell-based, human; design: key: +: inhibition of cell growth; −: absence of effect
C-6 cells [6] = test: Cell growth inhibition, C-6; assay type: cell-based, rat; design: key: +: inhibition of cell growth; −: absence of effect
U118 cells = test: Nuclear SM levels in U118 cells; assay type: cell-based, human; settings: U118, 200 μM, 24 hours
Description: FIG. 3. Compound 2OHOA induces an increase in nuclear SM. U118 cancer cells were treated for 24 hours with a vehicle (control) or with 2OHOA at a concentration of 200 μM. The values of the ordinate axis represent the average±ESM (n=3-5) of levels of SM compared to the untreated control (100%).
Another effect associated to the reduction in cell proliferation is an increase in the levels of nuclear SM.

enzyme EC 2.7.8.27 [7] = test: Activity of enzyme EC 2.7.8.27 in U118 cells (NBD-Cer to NBD-SM); assay type: cell-based, human; settings: U118, 200 μM, 5 minutes to 24 hours
Description: (§2) FIG. 4. Compound 2OHOA acts directly on enzyme EC 2.7.8.27. In A, B, C, in all cases, we incubated cells or cellular extracts or means of incubation with the fluorescent stratum of this enzyme NBD-Cer (nitro-benzoxadiazol-il) ceramide], in the presence or absence (control, white bars) of 2OHOA (black bars). Then, we extracted the lipids and determined the levels of formation of NBD-SM per HPTLC (HP-TLC, high performance thin layer chromatography). The values are presented on the ordinate axis as the average±ESM (n=3-5).
A. In vivo experiment of the activity of enzyme EC 2.7.8.27: we incubated U118 cells with NBD-Cer for 4 hours and then treated them with compound 2OHOA (200 μM) for different periods of time (5, 15, 60 minutes y 24 hours). Later, the cells homogenised and we measured the metabolisation of fluorofor NBD-Cer to become NBD-SM.
The speed of the phenomenon clearly indicates direct and effective interaction between enantiomer 2OHOA and enzyme EC 2.7.8.27. So, this invention refers to the use of the aforementioned compounds as activators (enantiomer [−]), or inhibitors (enantiomer [+]) specific to enzyme EC 2.7.8.27.

enzyme EC 2.7.8.27 [8] = test: Activity of enzyme EC 2.7.8.27 in cellular extracts (NBD-Cer); assay type: biochemical; settings: homogenised cells, 200 μM, NBD-Cer 2 hours
Description: as §2
B. In vitro experiment of the activity of enzyme EC 2.7.8.27 in cellular extracts, where we measured the activity of the enzyme after killing the cells. […] For these experiments, homogenised cells were incubated with compound 2OHOA (200 μM) and NBD-Cer for 2 hours.

enzyme EC 2.3.1.50 = test: [3H]palmitate incorporation in lipid fractions of U118 cells; assay type: cell-based, human; design: dose or concentration left out as unconfirmed; settings: U118, 24 h
Description: FIG. 9. Regulation of the activity of enzyme 2.3.1.50.
We incubated human glioma cells U118 in the presence or absence (control) of 2OHOA ([…], 24 h) and later incubated them with [^3H]palmitate for 5 minutes. After these periods of incubation, we extracted the cellular lipids and separated them by TLC. The bands correspond to each species of lipid extracted and the amount of radioactive palmitate incorporated was measured by liquid shining. As we can see, not only was there an important incorporation of the fraction of the SM (an indicator of the activity of enzyme EC 2.7.8.27), but also in the fraction of the ceramide, which indicates activity of enzyme EC 2.3.1.50 (serin-palmitoil transferase).

enzyme EC 1.14.19.1 = test: [3H]oleate incorporation in U118 cell membranes; assay type: cell-based, human; settings: U118, 200 μM, 24 h
Description: FIG. 10. Regulation of the activity of enzyme 1.14.19.1.
Oleic acid is synthesised from esteric acid by the activity of the estearoil-CoA desaturase enzyme (EC 1.14.19.1). This enzyme is crucial in lipid metabolism, as it is a limitant in the synthesis of fatty acids. To see whether this reduction was due to regulation of enzyme EC 1.14.19.1, we incubated U118 cells in the presence or absence of 2OHOA (200 μM, 24 h) and, later, in the presence of [^3H]oleate (5 minutes).

`CCCCCCCC/C=C\CCCCCCC(O)C(=O)O` (stereo not drawn) [[−]2OHOA] [[−] HOOC—HOCH—(CH2)6—(CH═CH—CH2)1—(CH2)6—CH3] was tested, and the “% SM after treatment” value (T98G cells [1]) was 19%, the “% SM after treatment” value (A172 cells [2]) was 23% and the “% SM after treatment” value (U87 cells) was 21%. The “% SM after treatment” value (C-6 cells [3]) was 20%, the “% SM after treatment” value (SH-SYSY cells) was 22% and the “% SM after treatment” value (U937 cells) was 24%. For the same molecule, the “% SM after treatment” value (HepG2 cells) was 35%, the “% SM after treatment” value (PC3 cells) was 27% and the “% SM after treatment” value (HT29 cells) was 21%. For the same molecule, the “% SM after treatment” value (IMR90 cells) was 23%, the “Effect (anti-proliferation effect)” value (T98G cells [4]) was “+” and the “Effect (anti-proliferation effect)” value (A172 cells [5]) was “+”. The “Effect (anti-proliferation effect)” value (C-6 cells [6]) was “+”.
In the case of `CCCCCCCC/C=C\CCCCCCC(O)C(=O)O` (racemic) [2OHOA, 2-hydroxyoleic acid], the “level of nuclear SM” value (U118 cells) is reported as “increases in the level of nuclear SM”, the “activation of enzyme EC 2.7.8.27 in cell cultures” value (enzyme EC 2.7.8.27 [7]) is reported as “enzymatic activation is visible from the first few minutes of incubation” and the “activation of enzyme EC 2.7.8.27 in cellular extracts” value (enzyme EC 2.7.8.27 [8]) is reported as “able to activate enzyme EC 2.7.8.27 by direct interaction”. For the same molecule, the “activity of enzyme EC 2.3.1.50 ([3H]palmitate in ceramide fraction)” value (enzyme EC 2.3.1.50) was “specific activator of enzyme EC 2.3.1.50” and the “incorporation of radioactive oleic acid in cell membranes” value (enzyme EC 1.14.19.1) was “significantly less than in control cells”.
